Values of other authors, collected in patent US20200209238A1, “OPTIMIZING DIAGNOSTICS FOR GALACTOFURANOSE CONTAINING ANTIGENS” (The Johns Hopkins University, priority 2017, published 2020).

Target: T1, hINTL-1 (Homo sapiens, UniProt Q8WWA0)
T1 construct: from tissue; host or cells: human urine
T1 sequence (Q8WWA0 19-298): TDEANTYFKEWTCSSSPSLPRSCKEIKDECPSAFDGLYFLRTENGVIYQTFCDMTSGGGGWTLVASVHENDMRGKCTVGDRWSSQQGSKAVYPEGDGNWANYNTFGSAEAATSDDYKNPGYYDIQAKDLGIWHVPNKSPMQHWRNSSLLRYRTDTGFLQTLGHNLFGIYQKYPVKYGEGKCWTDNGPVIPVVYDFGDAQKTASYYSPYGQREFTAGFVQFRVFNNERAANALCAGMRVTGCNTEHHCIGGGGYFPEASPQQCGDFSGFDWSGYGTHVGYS

SMILES: CC(=O)N[C@H]1[C@H]([C@H](O)[C@H](O)CO)OC(O)(C(=O)O)C[C@@H]1O (stereo partly shown) [N-Acetylneuraminic acid (Neu5Ac), N-Acetylneuraminic acid]
- binding to hIntL-1: does not bind
